Measurements from the supplement of paper PMC4862054.

Each compound was assayed on HDQ-P1 (assay: normalised response (% of control), CellTiter-Glo; higher = more viable cells (100 = DMSO, 0 = benzethonium chloride kill control)). Conditions: incubation time: 72 h.
Protocol: (§1)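 DSRT, 72 h incubation, CellTox Green / CellTiter-Glo readout. Signal is normalised to DMSO and benzethonium chloride controls. Value is the normalised response at dose 3.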

Structure (SMILES) | normalised response [%]
CN(c1ccccc1CNc1nc(Nc2ccc3c(c2)CC(=O)N3)ncc1C(F)(F)F)S(C)(=O)=O (100 nM) | 101
Nc1nccc(-c2c(-c3ccc(F)cc3)ncn2C2CCCCC2)n1 (100 nM) | 95.2
COC1=C2C[C@@H](C)C[C@H](OC)[C@H](O)[C@@H](C)/C=C(\C)[C@H](OC(N)=O)[C@@H](OC)/C=C\C=C(/C)C(=O)NC(=CC1=O)C2=O [Geldanamycin] (100 nM) | 102
Cn1c(=O)c(F)c(Nc2ccc(I)cc2F)c2c(=O)n(C[C@@H](O)CO)cnc21 [TAK-733] (10 nM) | 74.5
CS(=O)(=O)CCNCc1ccc(-c2ccc3ncnc(Nc4ccc(OCc5cccc(F)c5)c(Cl)c4)c3c2)o1 [Lapatinib] (10 nM) | 95.7
Cc1cc(C(C)Nc2ccccc2)c2nc(N3CCOCC3)cc(=O)n2c1 (stereo not given) [TGX-221] (100 nM) | 98.7
CCS(=O)(=O)c1cccc(-c2cc(C(=O)NC3CCN(C)CC3)c(C)c3[nH]c4ncc(C)cc4c23)c1 [TAK-901] (10 nM) | 97
O=c1[nH]c(=O)n([C@H]2C[C@H](O)[C@@H](CO)O2)cc1F [Floxuridine] (100 nM) | 90.8

Each compound was assayed on Hs578T in the same assay as above. Conditions: incubation time: 72 h.
Protocol: as §1

Structure (SMILES) | normalised response [%]
CC(C)(C)c1cc(NC(=O)Nc2ccc(-c3cn4c(n3)sc3cc(OCCN5CCOCC5)ccc34)cc2)no1 [Quizartinib] (10 nM) | 102
CN(c1ccccc1CNc1nc(Nc2ccc3c(c2)CC(=O)N3)ncc1C(F)(F)F)S(C)(=O)=O (100 nM) | 94.3
Nc1nccc(-c2c(-c3ccc(F)cc3)ncn2C2CCCCC2)n1 (100 nM) | 104
COC1=C2C[C@@H](C)C[C@H](OC)[C@H](O)[C@@H](C)/C=C(\C)[C@H](OC(N)=O)[C@@H](OC)/C=C\C=C(/C)C(=O)NC(=CC1=O)C2=O [Geldanamycin] (100 nM) | 107
Cn1c(=O)c(F)c(Nc2ccc(I)cc2F)c2c(=O)n(C[C@@H](O)CO)cnc21 [TAK-733] (10 nM) | 96.8
CS(=O)(=O)CCNCc1ccc(-c2ccc3ncnc(Nc4ccc(OCc5cccc(F)c5)c(Cl)c4)c3c2)o1 [Lapatinib] (10 nM) | 106
Cc1cc(C(C)Nc2ccccc2)c2nc(N3CCOCC3)cc(=O)n2c1 (stereo not given) [TGX-221] (100 nM) | 93.9
CCS(=O)(=O)c1cccc(-c2cc(C(=O)NC3CCN(C)CC3)c(C)c3[nH]c4ncc(C)cc4c23)c1 [TAK-901] (10 nM) | 108
O=c1[nH]c(=O)n([C@H]2C[C@H](O)[C@@H](CO)O2)cc1F [Floxuridine] (100 nM) | 28

Each compound was assayed on MCF-10A in the same assay as above. Conditions: incubation time: 72 h.
Protocol: as §1

Structure (SMILES) | normalised response [%]
CC(C)(C)c1cc(NC(=O)Nc2ccc(-c3cn4c(n3)sc3cc(OCCN5CCOCC5)ccc34)cc2)no1 [Quizartinib] (10 nM) | 105
CN(c1ccccc1CNc1nc(Nc2ccc3c(c2)CC(=O)N3)ncc1C(F)(F)F)S(C)(=O)=O (100 nM) | 86.2
Nc1nccc(-c2c(-c3ccc(F)cc3)ncn2C2CCCCC2)n1 (100 nM) | 105
COC1=C2C[C@@H](C)C[C@H](OC)[C@H](O)[C@@H](C)/C=C(\C)[C@H](OC(N)=O)[C@@H](OC)/C=C\C=C(/C)C(=O)NC(=CC1=O)C2=O [Geldanamycin] (100 nM) | 103
Cn1c(=O)c(F)c(Nc2ccc(I)cc2F)c2c(=O)n(C[C@@H](O)CO)cnc21 [TAK-733] (10 nM) | 53.8
CS(=O)(=O)CCNCc1ccc(-c2ccc3ncnc(Nc4ccc(OCc5cccc(F)c5)c(Cl)c4)c3c2)o1 [Lapatinib] (10 nM) | 95.5
Cc1cc(C(C)Nc2ccccc2)c2nc(N3CCOCC3)cc(=O)n2c1 (stereo not given) [TGX-221] (100 nM) | 93.5
CCS(=O)(=O)c1cccc(-c2cc(C(=O)NC3CCN(C)CC3)c(C)c3[nH]c4ncc(C)cc4c23)c1 [TAK-901] (10 nM) | 104
O=c1[nH]c(=O)n([C@H]2C[C@H](O)[C@@H](CO)O2)cc1F [Floxuridine] (100 nM) | 109

Each compound was assayed on MDA-MB-231 in the same assay as above. Conditions: incubation time: 72 h.
Protocol: as §1

Structure (SMILES) | normalised response [%]
CC(C)(C)c1cc(NC(=O)Nc2ccc(-c3cn4c(n3)sc3cc(OCCN5CCOCC5)ccc34)cc2)no1 [Quizartinib] (10 nM) | 108
CN(c1ccccc1CNc1nc(Nc2ccc3c(c2)CC(=O)N3)ncc1C(F)(F)F)S(C)(=O)=O (100 nM) | 89.6
Nc1nccc(-c2c(-c3ccc(F)cc3)ncn2C2CCCCC2)n1 (100 nM) | 106
COC1=C2C[C@@H](C)C[C@H](OC)[C@H](O)[C@@H](C)/C=C(\C)[C@H](OC(N)=O)[C@@H](OC)/C=C\C=C(/C)C(=O)NC(=CC1=O)C2=O [Geldanamycin] (100 nM) | 113
Cn1c(=O)c(F)c(Nc2ccc(I)cc2F)c2c(=O)n(C[C@@H](O)CO)cnc21 [TAK-733] (10 nM) | 90.3
CS(=O)(=O)CCNCc1ccc(-c2ccc3ncnc(Nc4ccc(OCc5cccc(F)c5)c(Cl)c4)c3c2)o1 [Lapatinib] (10 nM) | 103
Cc1cc(C(C)Nc2ccccc2)c2nc(N3CCOCC3)cc(=O)n2c1 (stereo not given) [TGX-221] (100 nM) | 92.7
CCS(=O)(=O)c1cccc(-c2cc(C(=O)NC3CCN(C)CC3)c(C)c3[nH]c4ncc(C)cc4c23)c1 [TAK-901] (10 nM) | 101
O=c1[nH]c(=O)n([C@H]2C[C@H](O)[C@@H](CO)O2)cc1F [Floxuridine] (100 nM) | 100

Each compound was assayed on MDA-MB-436 in the same assay as above. Conditions: incubation time: 72 h.
Protocol: as §1

Structure (SMILES) | normalised response [%]
CC(C)(C)c1cc(NC(=O)Nc2ccc(-c3cn4c(n3)sc3cc(OCCN5CCOCC5)ccc34)cc2)no1 [Quizartinib] (10 nM) | 109
CN(c1ccccc1CNc1nc(Nc2ccc3c(c2)CC(=O)N3)ncc1C(F)(F)F)S(C)(=O)=O (100 nM) | 91.9
Nc1nccc(-c2c(-c3ccc(F)cc3)ncn2C2CCCCC2)n1 (100 nM) | 113
COC1=C2C[C@@H](C)C[C@H](OC)[C@H](O)[C@@H](C)/C=C(\C)[C@H](OC(N)=O)[C@@H](OC)/C=C\C=C(/C)C(=O)NC(=CC1=O)C2=O [Geldanamycin] (100 nM) | 107
Cn1c(=O)c(F)c(Nc2ccc(I)cc2F)c2c(=O)n(C[C@@H](O)CO)cnc21 [TAK-733] (10 nM) | 104
